“Also recorded” adds a separate entry of the source. Like-named read-outs stand apart in the source and are kept apart here.
What was measured:
[1] = tested on: mouse keratinocytes; test: Ca2+ imaging in cultured mouse keratinocytes; type: cell-based; settings: inhibitor 10 μM
Procedure: Basal keratinocytes were separated from the cornified sheets by filtration through a […] cell strainer. Keratinocytes were plated on collagen I-coated dishes or glass coverslips and grown in EME media (Gibco, Gaithersburg, MD) containing 8% chelex (Bio-rad, Hercules, CA)-treated FBS with the final Ca^2+ adjusted to 0.05 mM, bovine pituitary extract (50 μg/mL), epidermal growth factor (5 ng/mL), and lx antibiotics/antimycotics (Gibco, Gaithersburg, MD) in a humidified incubator with 5% CO2 at 37° C. for 5-7 days until use. To knockdown Trpv4 in isolated keratinocytes from newborn keratinocyte-Trpv4 cKO mice, cells were treated with 4-OH tamoxifen at 500 nM for 72 h.
(§1) In vitro and ex vivo Ca^2+ imaging. […] Ca^2+ imaging of cultured cells in response to chemicals was conducted after loading with 5 μM Fura2-AM (Invitrogen, Waltham, MA) for 45 min after a ratiometric Ca^2+-imaging protocol with 340/380-nm blue light for dual excitation. Ratios of emissions were acquired at 0.5 Hz. ΔR/R0 was determined as the fraction of the increase of a given ratio over baseline ratio divided by baseline ratio. […] Control cells received vehicles.

[2] = tested on: human keratinocytes; test: Ca2+ imaging in cultured human keratinocytes; type: cell-based; settings: inhibitor 10 μM
Procedure: In brief, surgically discarded foreskin samples, obtained from Duke Children's Hospital in accordance to institutionally approved IRB protocol, were incubated with Dispase (Gibco, Gaithersburg, MD, 4 U/mL) for 12-16 h at 4° C. followed by 0.05% trypsin (Gibco, Gaithersburg, MD) for 10-20 min at 37° C. Cells were maintained in keratinocyte serum-free media (Invitrogen, Waltham, MA) with 5% CO2 at 37° C. and used at passage 2-3.
as §1

[3] = tested on: mice; test: Scratching behavior after i.d. injection into dorsal neck skin; type: in vivo, mouse; settings: i.d. into dorsal neck, LPA 18:1 500 μg, LPC 50-500 μg, LPC species at the same dose
Procedure: Behavioral assessment. Mice were shaved at the dorsal neck 1 d before experiments. Mice were allowed to acclimate to a Plexiglas chamber for at least 30 min before testing and received intradermal (i.d.) injection of 50 μL of LPA 18:1, LPC, LPC 14:0, LPC 16:0, LPC 18:0, LPC 18:1, miR-146a mimic, miR-146a scramble, ATP or vehicles through a 30-gauge needle (Becton Dickinson, Franklin Lakes, NJ) into the neck skin. After injections, mice were immediately placed back to the chamber, and the scratching behavior was recorded by a Panasonic video camera for 30 min. Hind limb scratching behavior directed toward the injected area at the nape of neck was observed. One scratch is defined as a lifting of the hind limb toward the injection site and then a replacing of the limb back to the floor, regardless of how many scratching strokes take place between those two movements. Behavioral analysis was conducted by observers blinded to genotype.

[4] = tested on: rat TRPV4 mutations (R746C, R746G, R746D, K754G, R757G, R774G, and W776G); test: Ca2+ imaging in HEK cells transfected with rat TRPV4 mutations; type: cell-based
Procedure: Cell culture and transfection. HEK293 cells (ATCC® CRL-1573) were cultured on poly-D-lysine coated coverslips in 24-well plate containing DMEM media with high-Glucose (Gibco, Gaithersburg, MD) supplemented with 10% fetal bovine serum (FBS, HyClone Laboratories, Logan, UT) and 100 U/mL of penicillin/streptomycin (Gibco, Gaithersburg, MD). Cell cultures were maintained with 5% of CO2 in a humidified incubator at 37° C. HEK cells were transfected with rat or human wild type or mutant TRPV4 channels with EGFP or YFP coupled to their C-termini (1.5 μg of plasmid for excised patch clamp and Ca^2+ imaging and 200 ng for single-channel experiments). The jetPEI™ Polyplus transfection reagent (Polyplus Transfection, New York, NY) for electrophysiology or Lipofectamine™ 2000 Reagent (Invitrogen, Waltham, MA) for Ca^2+ imaging were used for transfections per manufacturer's instructions as previously described (Chen et al. Pain 2014, 155, 2662-2672; Morales-Lazaro et al. Nat. Commun. 2016, 7, 13092). To investigate whether miR-146a can directly activate TRPV1 channels or indirectly via TLRs, HEK293 cells were transfected with rTRPV1 or co-transfected rTRPV1 with rTLR7, rTLR2, or rTLR6 (Addgene, Watertown, MA) for Ca^2+ imaging assay. Control cells were transfected with GFP or YFP.
Site-directed mutagenesis of TRPV4 channels. TRPV4 sequences of multiple species were aligned using Clustal Omega program. Site-directed mutagenesis to generate point mutations in rat and human TRPV4 channels were carried out using Phusion DNA polymerase enzyme (Salazar et al. Nat. Struct. Mol. Biol. 2009, 16, 704-710; Rosenbaum et al. Neuron 2002, 33, 703-713; Hsieh et al. Methods Mol. Biol. 2013, 978, 173-186), with final sequencing to check for presence of the induced mutation. We introduced the following mutations into the rTRPV4 or hTRPV4 channel: R746C, R746G, R746D, K754G, R757G, R774G, and W776G.
In vitro and ex vivo Ca^2+ imaging. […] Ratios of emissions were acquired at 0.5 Hz. ΔR/R0 was determined as the fraction of the increase of a given ratio over baseline ratio divided by baseline ratio. […]

In the case of `Cc1c(C(=O)Nc2cccc(C(F)(F)F)c2)cc(-c2ccccc2)n1CCCN1CCOCC1` [HC067047], the “effect on LPA 18:1 (10 μM) induced Ca2+ signal” value [1] is reported as “remained unchanged”, the “effect on LPC (10 μM) induced Ca2+ signal” value [1] is reported as “significantly reduced” and the “effect on LPA 18:1 (10 μM) induced Ca2+ signal” value [2] is reported as “remained unchanged”. For the same molecule, the “effect on LPC (10 μM) induced Ca2+ signal” value [2] was “significantly reduced”.
With LPC 18:1 the “scratching behavior (itch) induced by i.d. injection of lipid” value [3] was “caused robust itch; also recorded: most potent”, the “scratching behavior (itch) induced by i.d. injection of lipid” value ([3]; listed as LPC (18:1)) was “the most potent” and the “Ca2+ signal induced by 10 μM LPC 18:1 in TRPV4 mutants vs rTRPV4” value [4] was “drastically reduced”. The “Ca2+ signal induced by 10 μM LPC 18:1 in TRPV4 mutants vs rTRPV4” value ([4]; listed as LPC (18:1)) was “significantly reduced potency”.
